Literature values as cited in US12128086B2, “Formulations and methods of use for alpha connexin c-terminal (ACT) peptides” (XEQUEL BIO, INC., priority 2012, dated 2024).
Where two headings read alike, the source gives them in different places.

Assays:
[1] = system: full thickness excisional wounds; settings: pigs; 100 μM of ACT1 peptide; 5 mm full thickness excisional wounds
[2] = system: full thickness excisional wounds; settings: adult mice; 100 μM of ACT1 peptide; 5 mm full thickness excisional wounds

Biotin-Ahx-Arg-Gln-Pro-Lys-lle-Trp-Phe-Pro-Asn-Arg-Arg-Lys-Pro-Trp-Lys-Lys-Arg-Pro-Arg-Pro-Asp-Asp-Leu-Glu-lle-OH [Peptide 328967]
Wound healing versus vehicle control (in words) [1]: closed faster, appeared less swollen and inflamed, and healed with a smoother and less discolored appearance
Wound healing versus vehicle control (in words) [2]: closed faster, appeared less swollen and inflamed, and healed with a smoother and less discolored appearance
